Experimental data: patent publication US20060008855A1, “Promiscuous G-protein compositions and their use” (Invitrogen Corporation, a Delaware corporation, priority 1996, published 2006)
Values joined by “and” are separate entries in the source; they are usually repeats but may differ in a detail not shown here. Identical values can stand only once.

Experiments:
β-lactamase = β-lactamase cleavage of CCF2 in phosphate buffer, emission spectrum; assay type: biochemical; details: 50 mmolar phosphate buffer pH 7.0, excitation 405 nm
Source text: The emission spectrum of compound CCF2 in 50 mmolar phosphate buffer pH 7.0 before and after β-lactamase cleavage of the β-lactam ring. In the intact substrate, efficient energy transfer occurs from the 7-hydroxycoumarin moiety to the fluorescein moiety. Excitation of the substrate at 405 nm results in fluorescence emission at 515 nm (green) from the acceptor dye fluorescein. The energy transfer is disrupted when β-lactamase cleaves the β-lactam ring, thereby severing the link between the two dyes. Excitation of the products at 405 nm now results entirely in donor fluorescence emission at 448 nm (blue). The fluorescence emission from the donor moiety increases 25 fold upon β-lactam cleavage. The fluorescence at 515 nm is reduced by 3.5-fold, all of the remaining fluorescence originating from the 7-hydroxycoumarin as its emission spectrum extends into the green. Twenty-five-fold quenching of the donor in the substrate is equivalent to an efficiency of fluorescence energy transfer of 96%. This large fluorescence change upon β-lactam cleavage can readily be used to detect β-lactamase in the cytoplasm of living mammalian cells.

RTEM β-lactamase [1] = target: T1, RTEM β-lactamase (Escherichia coli, UniProt P62593); assay: Pixel intensities of CCF2 loaded COS-7 cells transiently transfected with RTEM β-lactamase gene; assay type: cell-based; parameters: expressed in transfected cells; host or cells: COS-7, transiently transfected; details: for pixel intensity, coumarin emission filter: 450 DF 65 filter
Experimental: (§1) Cells from cell lines of various mammalian origin were transiently transfected with a plasmid containing the RTEM β-lactamase gene under the control of a mammalian promoter. […] D. 1.10 to 48 hours after transfection cells were exposed to 5 micromolar CCF2/ac2AM2 for 1 to 6 hours. […] To quantitate the fluorescence measurements the cells were first viewed through coumarin (450 DF 65) and then fluorescein (515 EFLP) emission filters and pictures were recorded with a charge couple device camera. The average pixel intensities of CCF2 loaded transfected cells (blue) and controls (green) at coumarin and fluorescein wavelength in COS-7 (Table 2) and CHO (Table 3) cells are summarized; values for 4 representative cells for each population are given.

RTEM β-lactamase [2] = target: T1, RTEM β-lactamase; assay: Pixel intensities of CCF2 loaded CHO cells transiently transfected with RTEM β-lactamase gene; assay type: cell-based; parameters: expressed in transfected cells; host or cells: CHO, transiently transfected; details: for pixel intensity, coumarin emission filter: 450 DF 65 filter
Experimental: as §1

NFAT promoter = NFAT promoter β-lactamase reporter gene assay in Jurkat T lymphocytes; assay type: cell-based
Source text: These examples employ Jurkat T lymphocytes that were transfected with a genetic construct that expresses a reporter gene. The genetic construct includes a NFAT promoter, which is responsive to increased calcium levels and protein kinase C activation that result from activation of Gα protein. The NFAT promoter was operably linked to a β-lactamase reporter gene. To detect expression of the reporter gene, and thereby detect activation of Gα, the cells were contacted with the β-lactamase substrate CCF2ac2/AM2 (described herein), and fluorescence emission was detected according to previously described methods (Tsien et al., 1993, Trends in Cell Biology 3:242-245).
Two different compounds, ionomycin and phorbol myristate acetate (PMA), were used to optimize detection of expression of the reporter gene in these examples. In the first example, the dose response to ionomycin was measured. In this example, a set of samples of cells were contacted with PMA (at 3 nM) and the calcium ionophore ionomycin (at various concentrations, ranging from 0 to 3.0 μM). […]
In practicing these methods, it is preferable to add the ionophore to a level that is just below the threshold level for activation of the calcium-responsive promoter (e.g., the NFAT promoter). […] As is illustrated in FIG. 4A, fluorescence emission from a sample of the aforementioned cells can be measured by FRET. In this example, fluorescence emission was measured approximately 90 minutes after stimulation. Because the fluorogenic β-lactamase substrate undergoes a shift in fluorescence emission, fluorescence emission is measured as an emission ratio (450/530) when exciting at 400 nm. […]
In a second example, the dose response of PMA required to stimulate NFAT-driven expression was measured. […] As above, fluorescence emission was measured 90 minutes after stimulation. […]

Gα15 or Gα16 expression = assay: Doxycyclin-inducible expression of Gα15 or Gα16 in COS-7 cells, Western blot; assay type: cell-based; details: COS-7 clones, tet operator/CMV promoter; doxycyclin 3 g/ml
Source text: The data summarized herein indicate that, although cells may not tolerate constitutive expression of promiscuous Gα proteins at high levels, they can tolerate expression of promiscuous Gα proteins from an inducible promoter. In this case, the genes for Gα15 and Gα16 were placed under the control of a cytomegalovirus (CMV) promoter that was operably linked to a heptamerized tet operator (Gossen and Bujard, 1992, Proc. Natl. Acad. Sci. 89:5547-5551). The plasmid encoding Gα and; the plasmid encoding Gα16 are identical, except sequences encoding Gα16 in lieu of Gα15. These plasmids were used to transfect COS-7 cells. These cells were co-transfected with a tetracyclin-dependent transactivator, rtTA, that is operably linked to a CMV promoter of a plasmid that carries a neomycin resistance gene (Gossen et al., 1995, Science 268:1766-1769).
Expression of the Gα genes was induced by contacting the cells with doxycyclin, a tetracyclin analog. In these experiments, the doxycyclin concentration was […], although doxycyclin concentrations ranging from […] can be used in order to regulate the level of gene expression. […] FIG. 3 illustrates that, in the presence of doxycyclin, expression of Gα15 or Gα16 is detectable as a band of approximately 43 kDa. […]

T1 sequence (P62593 24-286 limits assumed): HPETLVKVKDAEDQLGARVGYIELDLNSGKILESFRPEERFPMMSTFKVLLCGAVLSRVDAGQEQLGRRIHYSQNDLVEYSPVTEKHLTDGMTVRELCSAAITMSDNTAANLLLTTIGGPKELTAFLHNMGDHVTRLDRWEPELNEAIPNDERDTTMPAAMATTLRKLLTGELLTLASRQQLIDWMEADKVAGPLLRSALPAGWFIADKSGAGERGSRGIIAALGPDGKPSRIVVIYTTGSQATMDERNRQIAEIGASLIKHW

O=C(CNC(=O)c1cc2cc(Cl)c(O)cc2oc1=O)N[C@@H]1C(=O)N2C(C(=O)O)=C(CSc3ccc4c(c3)C(=O)OC43c4ccc(O)cc4Oc4cc(O)ccc43)CS[C@H]12 [CCF2]
reduction of fluorescence at 515 nm upon β-lactam cleavage (β-lactamase): 3.5 fold | increase of fluorescence emission from the donor moiety upon β-lactam cleavage (β-lactamase; emission 448 nm): 25 fold | pixel intensity, coumarin emission filter (RTEM β-lactamase [1]; COS-7, blue cell (transfected)): 22 and 27 and 34 and 31 | pixel intensity, Fluorescein emission filter (RTEM β-lactamase [1]; COS-7, blue cell (transfected), 515 EFLP filter): 33 and 20 and 23 and 31 | pixel intensity, coumarin emission filter (RTEM β-lactamase [1]; COS-7, green cell (control)): 4 and 5 and 3 | pixel intensity, coumarin emission filter (RTEM β-lactamase [2]; blue cell (transfected)): 98 and 70 and 76 and 56 | pixel intensity, Fluorescein emission filter (RTEM β-lactamase [2]; blue cell (transfected), 515 EFLP filter): 112 and 113 and 92 and 67 | pixel intensity, coumarin emission filter (RTEM β-lactamase [2]; green cell (control)): 9 and 7

C[C@H](CCC(=O)O)C[C@H](C)C[C@H](C)C(=O)/C=C(\O)[C@H](C)C[C@H](C)C/C=C/[C@@H](C)[C@@H](O)[C@@H](C)[C@@H](O)C[C@@H]1CC[C@@](C)([C@H]2CC[C@@](C)([C@@H](C)O)O2)O1 [ionomycin]
concentration raising intracellular calcium to just below the threshold level for activation of the calcium-responsive promoter (NFAT promoter; with PMA at 3 nM, emission ratio 450/530, about 90 minutes after stimulation): approximately 0.3 μM

C[C@H]1c2cccc(O)c2C(O)=C2C(=O)[C@]3(O)C(O)=C(C(N)=O)C(=O)[C@@H](N(C)C)[C@@H]3[C@@H](O)[C@@H]21 [doxycyclin]
Gα proteins produced upon induction of gene expression (Gα15 or Gα16 expression): Up to 10,000 Gα proteins/cell

CCCCCCCCCCCCCC(=O)O[C@@H]1[C@@H](C)[C@@]2(O)[C@@H](C=C(CO)C[C@]3(O)C(=O)C(C)=C[C@@H]23)[C@@H]2C(C)(C)[C@]12OC(C)=O [PMA, phorbol myristate acetate]
effect on fluorescence emission from the cell sample (NFAT promoter; 0 to 30 nM with 1 μM ionomycin, 90 minutes after stimulation): increased fluorescence emission | concentration preferable for enhancing detection of expression of a reporter gene (NFAT promoter; with 1 μM ionomycin, 90 minutes after stimulation): approximately 3 nM
